Experiments:
U-251MG cells = test: Effect of cRGD and RGD peptides on growth of human glioma cells (viable cell count by trypan blue dye exclusion; morphology under microscope); assay type: cell-based; conditions: 18 hours; for % inhibition: viable cells vs untreated control
Procedure: (§1) Human glioblastoma, U-87MG, and U-373MG cells were obtained from the American Type Culture Collection, Rockville, MD and grown in Dulbecco's modified Eagle's medium supplemented with 10% fetal calf serum (Hyclone Laboratories Inc. Logan, UT), sodium pyruvate (55 mg/L), sodium bicarbonate (1.2 g/L), HEPES (1.2 g/L) and gentamicin (50 µg/ml). U-251MG cells were provided by Dr. G.Y. Gillespie, University of Alabama at Birmingham, Alabama, and were grown in the above media.
(§2) Semi-confluent monolayers of U-87MG, U-251MG and U-373MG cells were treated with different concentrations of cRGD for 18 hours at 37° C incubator with 5% CO2. One set of cells served as untreated control. The cells were monitored under microscope for morphological changes. Most of the cRGD (10 µg/ml)-treated U-87MG (Figure 2; C=control) and U-373MG cells were rounded up. […] The number of viable cells (both treated and untreated) were then counted by trypan blue dye exclusion method using a hemacytometer (Hausser Scientific, Horsham, PA) and percent inhibition was calculated (Table 1).

U-87MG cells [1] = test: as above; assay type: cell-based; conditions: 18 hours; for % inhibition: viable cells vs untreated control
Procedure: as §1, §2

U-373MG cells = test: as above; assay type: cell-based; conditions: 18 hours; for % inhibition: viable cells vs untreated control
Procedure: as §1, §2

U-87MG cells [2] = test: U-87MG-induced spheroid formation in liquid culture; assay type: cell-based, Human; conditions: treated again after 48 hours, further 72 hours
Procedure: U-87MG cells can be grown either as a monolayer or as multicellular three-dimensional spheroids (500-1,000 µm) in liquid culture. Since spheroids closely resemble the architecture of a tumor in vivo, the cultures were contacted with cRGD or RGD to determine if treatment had any effect on spheroid formation. U-87MG cells (5 ×10^5-1×10^6) were mixed with either cRGD (100µg) or RGD (100µg) peptide or PBS (as untreated control) and incubated at 4° C for 30 minutes. Treated and untreated cells were then seeded onto 24-well plate and incubated further at 37° C. Forty eight hours later; the treated cells were treated again with respective peptides and incubated for 72 hours.
In a second study, U-87MG cells were allowed to grow (in a 24-well plate) for 24 hours before the addition of cyclic (50 µg) or linear (50 µg) peptide. One set of cells, with PBS alone, served as untreated control. Forty eight hours later, the cells were treated again with respective cRGD (50 µg) or RGD (50 µg) peptides and incubated for an additional 72 hours.

U-87MG cells [3] = test: Effect of caspase-3 and caspase-9 inhibitors on cell death induced by cRGDfV (viable cell count, percent survival); assay type: cell-based, Human; conditions: U-87MG pretreated with DEVD-FMK (10 µM) or LEHD-FMK (10 µM) for 90 minutes; cRGDfV 20 µg/ml, 18 hours
From the text: To determine whether the observed killing of glioma cells was due to apoptosis, we used inhibitors of caspase-3 (DEVD-FMK) and caspase-9 (LEHD-FMK), two of the cysteine aspartyl proteases, known to be involved in apoptosis (see Salvesen GS, Dixit VM (1997) Cell 91:443-446; Cohen GM (1997) Biochem J326:1-16; Janicke RU, Sprengart ML, Wati MR, Porter AG (1998) J Biol Chem 273:9357-9360; Cardone MH, Roy N, Stennicke, HR, Salvesen GS, Franke TF, Stanbridge E, Frisch S, Reed JC (1998) Science 282:1318-1321; Sakahira H, Enari M, Nagata S (1998) Nature 391:96-99). Caspase-3 is required for morphological changes and cleavage of poly(ADP-ribose) polymerase (PARP), a cellular enzyme implicated in DNA repair mechanism. Caspase-9 is involved in cytochrome c-induced apoptosis by activating procaspase-3 which finally leads to apoptosis. Briefly, U-87MG and U-251MG cells were harvested from monolayer culture and were treated with DEVD-FMK (10 µM) or LEHD-FMK (10 µM) for 90 minutes at 37°C. One set of cells without any inhibitor served as control. Cells were then washed and incubated in the presence or absence of cRGDfV (20 µg/ml) at 37°C, 5% CO2 for 18 hours. The number of viable cells, both in control and treated groups were counted and percent survival was determined.

Compound | % inhibition (U-251MG cells; 10 ug/ml) | % inhibition (U-251MG cells; 20 ug/ml) | % inhibition (U-87MG cells [1]; 10 ug/ml) | % inhibition (U-87MG cells [1]; 20 ug/ml) | % inhibition (U-373MG cells; 10 ug/ml) | % inhibition (U-373MG cells; 20 ug/ml) | effect on spheroid formation (U-87MG cells [2]; first study: 100µg peptide mixed with cells) | morphological changes (U-251MG cells; 10 µg/ml) | morphological changes (U-87MG cells [1]; 10 µg/ml) | morphological changes (U-373MG cells; 10 µg/ml) | number of viable cells after cRGDfV treatment (U-87MG cells [3]) | reduction of the size of the spheroids (U-87MG cells [2]; first study: 100µg peptide mixed with cells, vs untreated control) | effect on spheroid formation (U-87MG cells [2]; second study: cells grown 24 hours, 50 µg peptide)
N=C(N)NCCC[C@H](N)C(=O)NCC(=O)N[C@@H](CC(=O)O)C(=O)O [RGD, H-Arg-Gly-Asp-OH, reference compound] | 0% | 13% | 0% | 3.5% | 6.7% | 0% | did not appear to effect spheroid formation | – | – | – | – | – | –
cyclo(Arg-Gly-Asp-D-Phe-Val) [cRGD] | 0% | 5.9% | 52.9% | 70.6% | 46.7% | 80.0% | – | no significant morphological changes | rounded up | rounded up | inability of cRGDfV to reduce the number of viable U-87MG cell | at least 70% | significant inhibitory effect on the spheroid formation

Reference: patent publication EP1002543A1, “Pharmaceutical compositions for the therapy of glioma or prostate cell proliferative disorders containing cyclic rgd compounds” (JCR PHARMACEUTICALS CO., LTD., priority 1998, dated 2000)
